Experimental data from publication PMC10180197, “Novel Pyrimidine Derivatives as Antioxidant and Anticancer Agents: Design, Synthesis and Molecular Modeling Studies” (Molecules, 2023).

Experiments:
[1] = Reducing activity of the stable radical DPPH
Procedure: All the synthesized compounds were studied for their ability to interact with the stable free 2,2-diphenyl-1-picrylhydrazyl radical (DPPH) at a concentration of 100 μM after 20 min and 60 min (Table 4). This assay is based on the reduction of DPPH by transferring one electron from the antioxidant.
In vitro study was performed as reported previously by our group. In this experiment, 20 μL of the tested compound (from the stock solution), 980 μL EtOH and 1 mL ethanolic solution of DPPH (100 μM) were added in a testing tube in a final volume of 2 mL. The free radical scavenging ability was evaluated by recording the change of absorbance at 517 nm, produced by the reduction of DPPH, after 20 and 60 min at room temperature.

[2] = test system: HaCaT cell line; assay: MTT cell viability assay, HaCaT; format: cell-based, human; settings: 100 μΜ, 24 h
Procedure: (§1) The MTT (3-(4,5-dimethylthiazol-2-yl)-2,5-diphenyltetrazolium bromide) assay is a colorimetric method that is used for the evaluation of cell viability. MTT is converted into colored formazan crystals, indicating the activity of mitochondria and therefore the viability of the cells. Unlike dead cells, the metabolic processes of living cells are functional, meaning that the dehydrogenase enzymes are able to reduce the yellow MTT salt solution to purple crystals, at 37 °C. The intensity of the sample’s color, due to the amount of formazan crystals, is proportional to the number of the living cells in it. Additionally, the colored product is dissolved in various solubilizing agents, such as dimethyl sulfoxide (DMSO). The colored products can be quantitatively measured at 450 nm with a plate reader spectrophotometer. In this study, the human epidermal keratinocyte cell line (HaCaT) was treated with different concentrations (100 μM, 50 μM, 10 μM and 1 μM) of the tested compounds and then the viability rates at each effect were calculated.
(§2) Τhe MTT assay was used to evaluate cell viability or cell toxicity, depending on the cell line being tested. The experimental procedure was performed in a 96-well plate, where the cells were seeded and incubated (37 °C, 5% CO2) for 24 h to grow and cover the surface of the wells. Τhe seeding concentrations for the HaCaT and A549 cells were 30 × 10^4 cells/mL and 20 × 10^4 cells/mL, respectively. After the first incubation, the solutions of the compounds (with different concentrations) were added to the adherent cells and incubated for another 24 h. The compounds were tested in triplicate against the control (only cells in medium), the blank (only medium) and the positive/negative control (cells in 100 μM silibinin solution) triplicates. Silibinin, a flavonoid with known anticancer activities, was used as a negative control for the cell viability assay and as positive control for the cytotoxicity testing assay. The light-sensitive MTT-standard solution was prepared by dissolving 1 mg/mL MTT in PBS and then filtrated (in a […] filter (Millipore, Carrigtwohill, Ireland)). On the third day, an appropriate amount of ΜΤΤ solution was added to each well and the plate was incubated for 4 h. During the incubation time, the formazan crystals were formed, which were then dissolved with 100 μL DMSO per well. Finally, the plate was stirred for 30 min, and the optical density (OD) was measured in a plate reader spectrophotometer at 450 nm.

[3] = MTT cell viability assay, HaCaT; format: cell-based, human; settings: human, HaCaT cells (epidermal keratinocyte cell line)
Procedure: as §1, §2

[4] = test system: A549 cell line; assay: MTT cytotoxicity assay, A549; format: cell-based, human; settings: Homo sapiens, 24 h
Procedure: The compounds of this study were also tested for their cytotoxic effects against the adenocarcinomic human alveolar basal epithelial cell line (A549) at different concentrations (100 μM, 75 μΜ, 50 μM and 10 μM).
as §2

[5] = Experimental determination of lipophilicity as RM values (RP-TLC); format: physicochemical; settings: methanol/water 70/30 v/v, 24 °C, SD < 10%
Description: Lipophilicity is an important physicochemical parameter of a drug candidate, linking solubility and membrane permeability with the ADMET (absorption, distribution, metabolism, elimination and toxicity) properties and the overall suitability of a molecule. Reversed-phase thin-layer chromatography was the method used to experimentally determine the lipophilic character of the synthesized compounds as RM values (Table 2). Lipophilicity was also theoretically calculated as clog P values using the Bio-Loom program of BioByte Corp (http://www.biobyte.com/, (accessed on 1 March 2023)). An attempt was made to correlate the experimental RM values with the theoretically calculated clog P values (Table 2). […] This disagreement could be attributed to several factors, e.g., different solvation, silanophilic interactions and hydrogen bonding.
Lipophilicity as RM values was determined through reversed-phase TLC (RP-TLC) on silica gel plates impregnated with 5% v/v liquid paraffin in light petroleum ether. Methanol/water mixture (70/30, v/v) was used as mobile phase. Closed chromatography tanks saturated with the mobile phase at 24 °C were used for the development of the plates while the spots were detected under UV light. For the determination of RM values, five individual measurements of Rf values were recorded, and the RM values were derived from the following Equation (1). (1) RM=log1/Rf−1

RM [5]: −0.48
Compound: O=c1[nH]c(=S)[nH]c2nc(-c3ccc(Cl)cc3)cc(-c3ccc(Cl)cc3Cl)c12 [Compound 2h, 7-(4-chlorophenyl)-5-(2,4-dichlorophenyl)-2-thioxo-2,3-dihydropyrido [2,3-d]pyrimidin-4(1H)-one]
RA % 100 μM 20 min ([1]; 20 min): no
RA % 100 μM 60 min ([1]; 60 min): no
% Cell Viability 100 μΜ [2]: no
viability at 24 h, 10 μM ([3]; 10 μΜ): 100%
viability at 24 h, 50 μM ([3]; 50 μΜ): 89.9%
cytotoxicity at 10 µM ([4]; A549, 10 μΜ, read-out: % Cell Toxicity 10 μΜ): 49.1%
cytotoxicity at 50 µM ([4]; A549, 50 μΜ, read-out: % Cell Toxicity 50 μΜ): 76.9%
cytotoxicity at 100 µM ([4]; A549, 100 μΜ, read-out: % Cell Toxicity 100 μΜ): 100%
